Key:
Format in all cases: in vivo
[1] = target: Common house mosquito (Culex pipiens pallens) female adult insects; assay: Test Example 3: knockdown by burning insect repellent incense in metallic cylinder, 10 minutes; details: B alone
Description: (§1) Wood powder 75 parts by weight, tab powder 5 parts by weight, lees powder 5 parts by weight, siam powder 10 parts by weight, and tapioca starch powder 5 parts by weight were mixed, and appropriate amount of water was added thereto and the resulting mixture was kneaded thoroughly. The kneaded mixture was molded to a sheet shape, and punched out to a spiral shape, and thereafter, the resulting mixture was dried to make an approximate degree of 7 to 10% by weight of moisture contents to prepare the blank insect repellent incense.
(§2) The acetone solution of the testing compounds that were diluted to make the prescribed concentrations were applied dropwise uniformly to the obtained blank insect repellent incense, and then air-dried to prepare the test formulation.
Common house mosquito (Culex pipiens pallens) female adult insects 20 were placed in the glass tube with 4.5 cm of a diameter and 12 cm of a height, and they were shut in the glass tube by covering the opening parts of the top and the bottom thereof with a nylon net having 16 mesh by a rubber band. […] Ten (10) minutes later, the number of knockdowned (hereinafter, abbreviated as “KD”) individuals were recorded. […]

[2] = target: Common house mosquito (Culex pipiens pallens) female adult insects; assay: Test Example 2: knockdown by burning insect repellent incense in metallic cylinder, 7 minutes; details: B alone
Description: as §1, §2
Common house mosquito (Culex pipiens pallens) female adult insects 20 were placed in the glass tube with 4.5 cm of a diameter and 12 cm of a height, and they were shut in the glass tube by covering the opening parts of the top and the bottom thereof with a nylon net having 16 mesh by a rubber band. A metallic cylinder with 22 cm of a diameter and 83 cm of the height was installed and set up, and two (2) of the above glass tube in which common house mosquito (Culex pipiens pallens) were placed were installed in the upper opening part and then fixed. The formulation that was prepared according to the above process was set to fire, and set up in the bottom opening part of the metallic cylinder. Seven (7) minutes later, the number of knockdowned (hereinafter, abbreviated as “KD”) individuals were recorded. The experiments were conducted in triple replicates to calculate the KD ratio.

[3] = target: Common house mosquito (Culex pipiens pallens) female adult insects; assay: Test Example 1: knockdown by burning insect repellent incense in metallic cylinder, 6 minutes; details: B alone, 0.01% in incense
Description: as §1, §2
Common house mosquito (Culex pipiens pallens) female adult insects 20 were placed in the glass tube with 4.5 cm of a diameter and 12 cm of a height, and they were shut in the glass tube by covering the opening parts of the top and the bottom thereof with a nylon net having 16 mesh by a rubber band. […] Six (6) minutes later, the number of individuals of knockdowned common house mosquito (Culex pipiens pallens) were recorded. […]

| Compound | KD ratio when used alone ([1]; 0.005%) | KD ratio when used alone ([2]; 0.005%) | KD ratio when used alone ([2]; 0.01%) | KD ratio when used alone [3] | KD ratio when used alone ([1]; 0.01%) |
| --- | --- | --- | --- | --- | --- |
| COCc1c(F)c(F)c(COC(=O)C2C(C=C(C)C)C2(C)C)c(F)c1F (centres unmarked) [Dimefluthrin, dimefluthrin] | KD ratio 45.0% | KD ratio 2.7% | KD ratio 68.3% | – | – |
| C/C=C/C1C(C(=O)OCc2c(F)c(F)c(COC)c(F)c2F)C1(C)C (centres unmarked) [Metofluthrin, metofluthrin] | – | – | KD ratio 75.0% | KD ratio 30.0% | – |
| CC1(C)[C@H](C=C(Cl)Cl)[C@H]1C(=O)OCc1c(F)c(F)cc(F)c1F [Transfluthrin, transfluthrin] | – | KD ratio 5.0% | KD ratio 10.0% | – | KD ratio 81.7% |

— patent US20240180138A1, “Heating Transpiration Composition, and Method for Exterminating Harmful Arthropods Using Same” (SUMITOMO CHEMICAL COMPANY, LIMITED, priority 2021, published 2024)
